{
  "source": "patent US20250074946A1",
  "about": "“USE OF SE-DR AFFINITY PEPTIDE IN PREPARING DRUG FOR TREATING RHEUMATIC DISEASE” (HEBEI FITNESS BIOTECHNOLOGY CO., LTD., priority 2021, published 2025)",
  "key": {"[1]": {"tested_on": "PBMC", "assay": "PBMC stimulation test, IL-6 in supernatant by ELISA", "assay_type": "cell-based, human", "conditions": "PBMC 1×10^6 cell/ml, peptide 10 μg/ml, 5 days of culture", "how_it_was_run": "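Human PBMC isolated from blood by Ficoll density centrifugation, seeded at 1×10^6 cell/ml in 1640 complete medium with peptide at final 10 μg/ml. Cultured 5 days; IL-6 in supernatant measured by ELISA.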"}, "[2]": {"tested_on": "CIA rats", "assay": "CIA rat model: inflammation score AUC and peripheral blood T-cell subtypes (Example 3)", "assay_type": "in vivo", "conditions": "0.2 mmol", "protocol": "Collagen-induced arthritis (CIA) model was established by intradermal injection of the emulsion formulated using type II bovine collagen (CII) together with incomplete Freund's adjuvant (IFA) into the tail head of a female Lewis rat. After the model establishment, the morphological changes of rats' four paws were examined every day. […] Except for the model group, the dosage of polypeptide was all set as 0.2 mmol. A control group was also set up, in which the drug was injected into the tail vein once every other day for […]. The area under the curve (AUC) of the inflammation score was used for the efficacy analysis from the day the rats were enrolled, once every other day, until the end of administration."}, "[3]": {"tested_on": "CIA rats", "assay_type": "in vivo, rat", "description": "Female Lewis rats were used to establish CIA model. Methods: The rats were immunized by intradermal injection with the emulsion prepared by bovine C II and IFA at the tail head. After 7 days, the rats were boosted once with the same method. Thereafter, the morphological changes of the four paws of the rats were examined every day. […] Another 8 female Lewis rats were not subjected to model establishment and set as the control group. PBS was administrated to both the model group and the control group. […] The inflammation scores of the four paws of the rats in each group were evaluated during the administration (once every other day), and the area under the curve (AUC) of the inflammation score was calculated during the administration. During drug discontinuation, the inflammation scores of the four paws of the rats in each group were continuously evaluated (once every other day), and the rats were sacrificed on day 22 after drug discontinuation. HE staining was performed on the ankle joint for tissue injury evaluation. The specific scoring criteria were as follows: 0=normal synovial tissue; 1=synovial hyperplasia and inflammatory cell infiltration; 2=pannus formation and cartilage erosion; 3=destruction of most of the cartilage with subchondral bone erosion; 4=loss of joint integrity, ankylosis."}, "[4]": {"tested_on": "CIA mice", "assay_type": "in vivo, mouse", "protocol": "Male DBA/1 mice were used to establish CIA model. Methods: Mice were immunized by intradermally injecting an emulsion of bovine C II and CFA (containing 100 μg collagen) at the tail head. After 21 days, the mice were boosted once by intraperitoneally injecting an emulsion of bovine C II and IFA (containing 100 μg collagen). […] Another 10 female DBA/1 mice were not subjected to model establishment and set as the control group. PBS was administrated to both the model group and the control group. Corresponding drugs were administrated to the mice in each group by tail vein injection at the volume of 10 mL/kg, once every other day, for 28 consecutive days, followed by a recovery period of 28 days. The inflammation score of the four paws of the mice in each group was evaluated during the administration (once every other day), and the area under the curve (AUC) of the inflammation score was calculated during the administration. During drug discontinuation, the inflammation scores of the four paws of the […] in each group were continuously evaluated (once every other day), and the rats were sacrificed on day 28 after drug discontinuation. HE staining was performed on the ankle joint for tissue injury evaluation. The specific scoring criteria were as follows: 0=normal synovial tissue; 1=synovial hyperplasia and inflammatory cell infiltration; 2=pannus formation and cartilage erosion; 3=destruction of most of the cartilage with subchondral bone erosion; 4=loss of joint integrity, ankylosis."}, "[5]": {"tested_on": "CIA rats with latent tuberculosis infection"}, "[6]": {"conditions": "peripheral blood, […] after end of administration, flow cytometry"}, "[7]": {"conditions": "HE staining of ankle joint, score 0-4"}},
  "note": "Where no end group is shown, it is not given here.",
  "data": [
    {"sequence": "FKGEQAGAGE [APL2]", "values": [
      {"measurement": "IL-6 levels in the supernatant", "setting": "[1]", "value": 2.3, "unit": "ng/mL"},
      {"measurement": "Inflammation score and area under the time curve (AUC)", "setting": "[2]; female Lewis CIA rats, tail vein once every other day for 15 days", "value": "52.37 ± 33.69"},
      {"measurement": "Th1 (%)", "setting": "[2]; [6]", "value": "0.16 ± 0.09", "unit": "%"},
      {"measurement": "Th2 (%)", "setting": "[2]; [6]", "value": "4.53 ± 0.50", "unit": "%"},
      {"measurement": "Th17 (%)", "setting": "[2]; [6]", "value": "0.87 ± 0.09", "unit": "%"},
      {"measurement": "Treg (%)", "setting": "[2]; [6]", "value": "5.52 ± 0.68", "unit": "%"},
      {"measurement": "inflammation score during drug discontinuation compared with that at the time of drug discontinuation", "setting": "[3]; 21 days of observation after stopping at day 21", "value": "could maintain the therapeutic effect"},
      {"measurement": "Pathological score during 21 days of drug discontinuation", "setting": "[3]; [7]", "value": "1.93 ± 0.58"},
      {"measurement": "AUC, during drug discontinuation (day 22-42)", "setting": "[3]; inflammation score AUC after stopping administration at day 21", "value": "42.86 ± 31.21"},
      {"measurement": "Incidence of infection in rats", "setting": "[3]; rat, in vivo", "value": 0, "unit": "%"},
      {"measurement": "Observation on the daily state of rats", "setting": "[3]; rat, in vivo", "value": "No"},
      {"measurement": "inflammation score during drug discontinuation compared with that at the time of drug discontinuation", "setting": "[4]; 28 days of observation after stopping at day 28", "value": "could maintain the therapeutic effect"},
      {"measurement": "Pathological score during 28 days of drug discontinuation", "setting": "[4]; [7]", "value": "2.05 ± 0.87"},
      {"measurement": "AUC, during drug discontinuation (day 29-56)", "setting": "[4]; inflammation score AUC after stopping administration at day 28", "value": "87.55 ± 40.08"},
      {"measurement": "Incidence of infection in mice", "setting": "[4]; mouse, in vivo", "value": 0, "unit": "%"},
      {"measurement": "Observation on the daily state of mice", "setting": "[4]; mouse, in vivo", "value": "No"},
      {"measurement": "Observation on the daily condition of rats", "setting": "[5]; during administration", "value": "No abnormality"},
      {"measurement": "Tuberculosis recurrence rate", "setting": "[5]; peptides 0.2 mmol, adalimumab 1 mg/kg, 21 days", "value": 0, "unit": "%"},
      {"measurement": "Inflammation score and area under the time curve (AUC)", "setting": "[5]; peptides 0.2 mmol, adalimumab 1 mg/kg, tail i.v. once every other day for 21 days", "value": "48.03 ± 31.91"},
      {"measurement": "Culture of MTB from lungs and spleens of rats at sacrifice", "setting": "[5]; sacrifice on day 22, peptides 0.2 mmol, adalimumab 1 mg/kg", "value": "Negative"}
    ]}
  ]
}
